Reference: patent US12077503B2, “Substituted cyclic amides and their use as herbicides” (FMC CORPORATION, priority 2015, dated 2024)

How the values were obtained:
Format in all cases: in vivo
[1] = tested on: Galium (catchweed bedstraw, Galium aparine); assay: Test A postemergence; settings: postemergence; for Galium plant response rating: 125 g ai/ha, visual injury rating on 0 to 100 scale (0 no effect, 100 complete control), approx. 10 d; for Plant response rating, Galium: 500 g ai/ha, 0 to 100 scale, 0 no effect, 100 complete control
Method in brief: (§1)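 Seeded soil received test chemicals as a preemergence directed spray, and seedlings at one to two leaves, 2–10 cm tall, received them postemergence, in a non-phytotoxic, surfactant-containing solvent mixture. Pots were held in a greenhouse for approximately 10 d, then rated for injury from 0, no effect, to 100, complete control.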

[2] = tested on: ryegrass, Italian (Italian ryegrass, Lolium multiflorum); assay: Test A postemergence; settings: postemergence; for Ryegrass, Italian plant response rating: 125 g ai/ha, visual injury rating on 0 to 100 scale (0 no effect, 100 complete control), approx. 10 d; for Plant response rating, Ryegrass, Italian: 500 g ai/ha, 0 to 100 scale, 0 no effect, 100 complete control
Method in brief: as §1

[3] = tested on: ragweed (common ragweed, Ambrosia elatior); assay: Test A postemergence; settings: postemergence; for Ragweed plant response rating: 125 g ai/ha, visual injury rating on 0 to 100 scale (0 no effect, 100 complete control), approx. 10 d; for Plant response rating, Ragweed: 500 g ai/ha, 0 to 100 scale, 0 no effect, 100 complete control
Method in brief: as §1

Kochia (Kochia scoparia) [4] = assay: Test A postemergence; settings: postemergence; for Kochia plant response rating: 125 g ai/ha, visual injury rating on 0 to 100 scale (0 no effect, 100 complete control), approx. 10 d; for Plant response rating, Kochia: 500 g ai/ha, 0 to 100 scale, 0 no effect, 100 complete control
Method in brief: as §1

[5] = tested on: pigweed (Amaranthus retroflexus); assay: Test A postemergence; settings: postemergence; for Pigweed plant response rating: 125 g ai/ha, visual injury rating on 0 to 100 scale (0 no effect, 100 complete control), approx. 10 d; for Plant response rating, Pigweed: 500 g ai/ha, 0 to 100 scale, 0 no effect, 100 complete control
Method in brief: as §1

[6] = tested on: giant foxtail (Setaria faberii); assay: Test A postemergence; settings: postemergence; for Foxtail, Giant plant response rating: 125 g ai/ha, visual injury rating on 0 to 100 scale (0 no effect, 100 complete control), approx. 10 d; for Plant response rating, Foxtail, Giant: 500 g ai/ha, 0 to 100 scale, 0 no effect, 100 complete control
Method in brief: as §1

corn (Zea mays) = assay: Test A postemergence; settings: postemergence; for Corn plant response rating: 125 g ai/ha, visual injury rating on 0 to 100 scale (0 no effect, 100 complete control), approx. 10 d; for Plant response rating, Corn: 500 g ai/ha, 0 to 100 scale, 0 no effect, 100 complete control
Method in brief: as §1

[7] = tested on: blackgrass (Alopecurus myosuroides); assay: Test A postemergence; settings: postemergence; for Blackgrass plant response rating: 125 g ai/ha, visual injury rating on 0 to 100 scale (0 no effect, 100 complete control), approx. 10 d; for Plant response rating, Blackgrass: 500 g ai/ha, 0 to 100 scale, 0 no effect, 100 complete control
Method in brief: as §1

[8] = tested on: barnyardgrass (Echinochloa crus-galli); assay: Test A postemergence; settings: postemergence; for Barnyardgrass plant response rating: 125 g ai/ha, visual injury rating on 0 to 100 scale (0 no effect, 100 complete control), approx. 10 d; for Plant response rating, Barnyardgrass: 500 g ai/ha, 0 to 100 scale, 0 no effect, 100 complete control
Method in brief: as §1

[9] = tested on: wheat (Triticum aestivum); assay: Test A postemergence; settings: postemergence; for Wheat plant response rating: 125 g ai/ha, visual injury rating on 0 to 100 scale (0 no effect, 100 complete control), approx. 10 d; for Plant response rating, Wheat: 500 g ai/ha, 0 to 100 scale, 0 no effect, 100 complete control
Method in brief: as §1

[10] = tested on: ryegrass, Italian (Italian ryegrass, Lolium multiflorum); assay: Test A preemergence; settings: for Plant response rating, Ryegrass, Italian: 125 g ai/ha, preemergence, 0 to 100 scale (0 no effect, 100 complete control); for Ryegrass, Italian plant response rating (0 to 100 scale, 0 is no effect, 100 is complete control): Preemergence, 500 g ai/ha, visual injury approx. 10 d
Method in brief: as §1

[11] = tested on: ragweed (common ragweed, Ambrosia elatior); assay: Test A preemergence; settings: for Plant response rating, Ragweed: 125 g ai/ha, preemergence, 0 to 100 scale (0 no effect, 100 complete control); for Ragweed plant response rating (0 to 100 scale, 0 is no effect, 100 is complete control): Preemergence, 500 g ai/ha, visual injury approx. 10 d
Method in brief: as §1

Kochia (Kochia scoparia) [12] = assay: Test A preemergence; settings: for Plant response rating, Kochia: 125 g ai/ha, preemergence, 0 to 100 scale (0 no effect, 100 complete control); for Kochia plant response rating (0 to 100 scale, 0 is no effect, 100 is complete control): Preemergence, 500 g ai/ha, visual injury approx. 10 d
Method in brief: as §1

[13] = tested on: pigweed (Amaranthus retroflexus); assay: Test A preemergence; settings: for Plant response rating, Pigweed: 125 g ai/ha, preemergence, 0 to 100 scale (0 no effect, 100 complete control); for Pigweed plant response rating (0 to 100 scale, 0 is no effect, 100 is complete control): Preemergence, 500 g ai/ha, visual injury approx. 10 d
[14] = tested on: giant foxtail (Setaria faberii); assay: Test A preemergence; settings: for Plant response rating, Foxtail, Giant: 125 g ai/ha, preemergence, 0 to 100 scale (0 no effect, 100 complete control); for Foxtail, Giant plant response rating (0 to 100 scale, 0 is no effect, 100 is complete control): Preemergence, 500 g ai/ha, visual injury approx. 10 d
Method in brief: as §1

[15] = tested on: barnyardgrass (Echinochloa crus-galli); assay: Test A preemergence; settings: for Plant response rating, Barnyardgrass: 125 g ai/ha, preemergence, 0 to 100 scale (0 no effect, 100 complete control); for Barnyardgrass plant response rating (0 to 100 scale, 0 is no effect, 100 is complete control): Preemergence, 500 g ai/ha, visual injury approx. 10 d
Method in brief: as §1

[16] = tested on: sedge, umbrella (small-flower umbrella sedge, Cyperus difformis); assay: Test B flooded paddy test; settings: Flood, 0 to 100 scale where 0 is no effect and 100 is complete control, 13 to 15 d
Method in brief: (§2)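 Evaluation by eye, against controls, occurred 13–15 d post-treatment in a greenhouse, using a 0 (no effect) to 100 (complete control) scale. Application was into the paddy water, 3 cm deep over the soil, on 2-leaf plants.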

rice (Oryra sativa) = assay: Test B flooded paddy test; settings: Flood, 0 to 100 scale where 0 is no effect and 100 is complete control, 13 to 15 d
Method in brief: as §2

[17] = tested on: barnyardgrass (Echinochloa crus-galli); assay: Test B flooded paddy test; settings: Flood, 0 to 100 scale where 0 is no effect and 100 is complete control, 13 to 15 d
Method in brief: as §2

[18] = tested on: ducksalad (Heteranthera limosa); assay: Test B flooded paddy test; settings: Flood, 0 to 100 scale where 0 is no effect and 100 is complete control, 13 to 15 d
Method in brief: as §2

Row | SMILES | Galium plant response rating [1] | Plant response rating, Galium [1] | Ryegrass, Italian plant response rating [2] | Plant response rating, Ryegrass, Italian [2] | Ragweed plant response rating [3] | Plant response rating, Ragweed [3] | Kochia plant response rating (Kochia (Kochia scoparia) [4]) | Plant response rating, Kochia (Kochia (Kochia scoparia) [4]) | Pigweed plant response rating [5] | Plant response rating, Pigweed [5] | Foxtail, Giant plant response rating [6] | Plant response rating, Foxtail, Giant [6] | Corn plant response rating (corn (Zea mays)) | Plant response rating, Corn (corn (Zea mays)) | Blackgrass plant response rating [7] | Plant response rating, Blackgrass [7] | Barnyardgrass plant response rating [8] | Plant response rating, Barnyardgrass [8] | Wheat plant response rating [9] | Plant response rating, Wheat [9] | further results
1 | O=C1NCC(c2cccc(OC(F)F)c2)C1C(=O)Nc1ccccc1OC(F)F (stereo not drawn) [Compound 427] | 40 | 50 | 0 | 20 | 0 | 20 | 0 | 20 | 0 | 0 | 50 | 80 | 0 | 20 | 20 | 40 | 60 | 80 | 0 | 20 | Plant response rating, Ryegrass, Italian [10]: 0; Ryegrass, Italian plant response rating (0 to 100 scale, 0 is no effect, 100 is complete control) [10]: 30; Plant response rating, Ragweed [11]: 0; Ragweed plant response rating (0 to 100 scale, 0 is no effect, 100 is complete control) [11]: 40; Plant response rating, Kochia (Kochia (Kochia scoparia) [12]): 30; Kochia plant response rating (0 to 100 scale, 0 is no effect, 100 is complete control) (Kochia (Kochia scoparia) [12]): 80; Plant response rating, Pigweed [13]: 0; Pigweed plant response rating (0 to 100 scale, 0 is no effect, 100 is complete control) [13]: 40; Plant response rating, Foxtail, Giant [14]: 90; Foxtail, Giant plant response rating (0 to 100 scale, 0 is no effect, 100 is complete control) [14]: 90; Plant response rating, Barnyardgrass [15]: 40; Barnyardgrass plant response rating (0 to 100 scale, 0 is no effect, 100 is complete control) [15]: 90; Plant response rating, Sedge, Umbrella ([16]; 500 g ai/ha): 0; Plant response rating, Rice (rice (Oryra sativa); 500 g ai/ha): 0; Plant response rating, Barnyardgrass ([17]; 500 g ai/ha): 40; Plant response rating, Ducksalad ([18]; 500 g ai/ha): 100
2 | CC(=O)Oc1cccc(C2CNC(=O)C2C(=O)Nc2cccc(F)c2F)c1 (stereo not drawn) [Compound 432] | 0 | 0 | 0 | 20 | 0 | 0 | 0 | 0 | 0 | 0 | 40 | 30 | 0 | 0 | 0 | 0 | 20 | 30 | 0 | 0 | Plant response rating, Ryegrass, Italian [10]: 0; Ryegrass, Italian plant response rating (0 to 100 scale, 0 is no effect, 100 is complete control) [10]: 0; Plant response rating, Ragweed [11]: 0; Ragweed plant response rating (0 to 100 scale, 0 is no effect, 100 is complete control) [11]: 0; Plant response rating, Kochia (Kochia (Kochia scoparia) [12]): 0; Kochia plant response rating (0 to 100 scale, 0 is no effect, 100 is complete control) (Kochia (Kochia scoparia) [12]): 0; Plant response rating, Pigweed [13]: 0; Pigweed plant response rating (0 to 100 scale, 0 is no effect, 100 is complete control) [13]: 0; Plant response rating, Foxtail, Giant [14]: 0; Foxtail, Giant plant response rating (0 to 100 scale, 0 is no effect, 100 is complete control) [14]: 0; Plant response rating, Barnyardgrass [15]: 30; Barnyardgrass plant response rating (0 to 100 scale, 0 is no effect, 100 is complete control) [15]: 40; Plant response rating, Sedge, Umbrella ([16]; 250 g ai/ha): 0; Plant response rating, Rice (rice (Oryra sativa); 250 g ai/ha): 15; Plant response rating, Barnyardgrass ([17]; 250 g ai/ha): 20; Plant response rating, Ducksalad ([18]; 250 g ai/ha): 0
